# Assay results as given in US11326164B2, “Trimethylglycylglycerin compositions and their use in developing anti-cancer drugs and RNA vaccines” (WJWU & LYNN Institute for Stem Cell Research, priority 2019, dated 2022).
# Test system: Human lung epithelial cell line and lung cancer cell lines
# Test: cell cultivation in TMGG (tolerance)
# Type: cell-based
# Details: cultivated in 0.01˜3.0M TMGG with all necessary supplements, up to 48 hours
# Protocol: Human lung epithelial cell line and lung cancer cell lines were purchased from ATCC and cultivated according to manufacturer's protocols at 37° C. under 5% CO2. Cells were passaged at about 50%-70% confluence by exposing the cells to trypsin/EDTA for about 1 min and then rinsing two times in HBSS containing trypsin inhibitor. The detached cells were replated at 1:5 dilutions in fresh EpiLife medium with HKGS supplements. For miRNA transfection, pri-/pre-miR-302 prepared from Example 1 was dissolved in 0.01˜5.0M, preferably 0.1˜2.0M, of TMGG solution at a desired concentration up to 5 mg/ml and then directly applied to cell culture medium based on the miRNA amount needed. For example, to deliver […] pri-/pre-miR-302, we would need to add 40 μl of the TMGG-dissolved pri-/pre-miR-302 (at 5 mg/ml) into the cell culture medium and then mix well with the cells.
substance,measurement,value
trimethylglycylglycerins [TMGG],adverse effect on cultivated cells,not showing any adverse effect
